Laboratory results taken from US20220128542A1, “TREATMENT EFFICIENCY EVALUATION” (TX MEDIC AB, priority 2019, published 2022).

Tested on: brain of rats subjected to severe traumatic brain injury (sTBI)
Assay: Ingenuity pathway analysis of differentially regulated genes after sTBI (canonical pathways, diseases and molecular functions; Example 4)
Parameters: species or system rat
Protocol: Pathway analysis of the differentially regulated genes was carried out using the Ingenuity pathway analysis package. The analysis was performed with special reference to pathways and molecular processes and diseases associated with neurodegenerative disease, including dementia, Alzheimer's disease, ALS, TBI and stroke, and with scarring and fibrosis, including glaucoma and normal pressure hydrocephalus (NPH) after subarachnoid haemorrhage.

[1] = TBI + 1 mg/kg LMW-DS, 2 days after TBI
[2] = TBI + 1 mg/kg LMW-DS, 7 days after TBI, relative to control
[3] = TBI + 1 mg/kg LMW-DS, 7 days after TBI
[4] = TBI + 5 mg/kg LMW-DS, 2 days after TBI

## sodium salt of dextran sulfate [LMW-DS]
[1]
  Effect on diseases or functions annotation: Apoptosis of muscle cells: Activated
  Effect on diseases or functions annotation: Behavior: Activated
  Effect on diseases or functions annotation: Binding of tumor cell lines: Activated
  Effect on diseases or functions annotation: Carcinoma: Inhibited
  Effect on diseases or functions annotation: Cell death: Inhibited
  Effect on diseases or functions annotation: Cell death of blood cells: Activated
  Effect on diseases or functions annotation: Cell death of immune cells: Activated
  Effect on diseases or functions annotation: Cell movement: Activated
  Effect on diseases or functions annotation: Cell movement of muscle cells: Inhibited
  Effect on diseases or functions annotation: Cell movement of vascular smooth muscle cells: Inhibited
  Effect on diseases or functions annotation: Cell proliferation of T lymphocytes: Inhibited
  Effect on diseases or functions annotation: Cellular homeostasis: Activated
  Effect on diseases or functions annotation: Development of connective tissue cells: Inhibited
  Effect on diseases or functions annotation: Differentiation of bone cells: Inhibited
  Effect on diseases or functions annotation: Differentiation of connective tissue cells: Activated
  Effect on diseases or functions annotation: Differentiation of hematopoietic progenitor cells: Activated
  Effect on diseases or functions annotation: Differentiation of osteoclasts: Inhibited
  Effect on diseases or functions annotation: Digestive organ tumor: Inhibited
  Effect on diseases or functions annotation: Experimentally-induced arthritis: Inhibited
  Effect on diseases or functions annotation: Extracranial solid tumor: Activated
  Effect on diseases or functions annotation: Genital tumor: Activated
  Effect on diseases or functions annotation: Incidence of tumor: Inhibited
  Effect on diseases or functions annotation: Inflammation of absolute anatomical region: Inhibited
  Effect on diseases or functions annotation: Inflammation of body cavity: Inhibited
  Effect on diseases or functions annotation: Inflammation of joint: Inhibited
  Effect on diseases or functions annotation: Inflammation of organ: Inhibited
  Effect on diseases or functions annotation: Inflammatory response: Activated
  Effect on diseases or functions annotation: Interaction of mononuclear leukocytes: Activated
  Effect on diseases or functions annotation: Leukocyte migration: Activated
  Effect on diseases or functions annotation: Leukopoiesis: Activated
  Effect on diseases or functions annotation: Lymphopoiesis: Activated
  Effect on diseases or functions annotation: Malignant solid tumor: Inhibited
  Effect on diseases or functions annotation: Migration of cells: Activated
  Effect on diseases or functions annotation: Necrosis: Inhibited
  Effect on diseases or functions annotation: Non-hematologic malignant neoplasm: Inhibited
  Effect on diseases or functions annotation: Pelvic tumor: Inhibited
  Effect on diseases or functions annotation: Proliferation of blood cells: Inhibited
  Effect on diseases or functions annotation: Proliferation of lymphatic system cells: Inhibited
  Effect on diseases or functions annotation: Proliferation of lymphocytes: Inhibited
  Effect on diseases or functions annotation: Quantity of blood cells: Inhibited
  Effect on diseases or functions annotation: Quantity of bone: Inhibited
  Effect on diseases or functions annotation: Quantity of cells: Inhibited
  Effect on diseases or functions annotation: Quantity of connective tissue cells: Activated
  Effect on diseases or functions annotation: Quantity of leukocytes: Inhibited
  Effect on diseases or functions annotation: Quantity of lymphatic system cells: Inhibited
  Effect on diseases or functions annotation: Quantity of phagocytes: Inhibited
  Effect on diseases or functions annotation: Rheumatic Disease: Inhibited
  Effect on diseases or functions annotation: Solid tumor: Inhibited
  Effect on diseases or functions annotation: Survival of organism: Inhibited
  Effect on diseases or functions annotation: Synthesis of hormone: Activated
  Effect on diseases or functions annotation: Thrombus: Activated
  Effect on diseases or functions annotation: Transport of molecule: Activated
[2]
  z score, Ingenuity canonical pathway: Adrenomedullin signaling pathway: −1
  z score, Ingenuity canonical pathway: ERK5 Signaling: −2
  z score, Ingenuity canonical pathway: Endothelin-1 Signaling: 1.342
  z score, Ingenuity canonical pathway: G Beta Gamma Signaling: 1
  z score, Ingenuity canonical pathway: NF-κB Signaling: −0.447
  z score, Ingenuity canonical pathway: Opioid Signaling Pathway: −0.447
  z score, Ingenuity canonical pathway: Role of NFAT in Regulation of the Immune Response: 0.816
  z score, Ingenuity canonical pathway: Synaptic Long Term Depression: 1.342
[3]
  Diseases or functions annotation: Abdominal cancer: Inhibited
  Diseases or functions annotation: Abdominal carcinoma: Inhibited
  Diseases or functions annotation: Cell movement: Inhibited
  Diseases or functions annotation: Cell viability: Inhibited
  Diseases or functions annotation: Concentration of hormone: Inhibited
  Diseases or functions annotation: Development of connective tissue cells: Inhibited
  Diseases or functions annotation: Development of malignant tumor: Inhibited
  Diseases or functions annotation: Developmental process of synapse: Inhibited
  Diseases or functions annotation: Differentiation of bone cells: Inhibited
  Diseases or functions annotation: Differentiation of connective tissue cells: Inhibited
  Diseases or functions annotation: Digestive organ tumor: Inhibited
  Diseases or functions annotation: Digestive system cancer: Inhibited
  Diseases or functions annotation: Epithelial neoplasm: Inhibited
  Diseases or functions annotation: Formation of plasma membrane: Inhibited
  Diseases or functions annotation: Frequency of tumor: Inhibited
  Diseases or functions annotation: Gastrointestinal tumor: Inhibited
  Diseases or functions annotation: Hematologic cancer: Inhibited
  Diseases or functions annotation: Hematopoietic neoplasm: Inhibited
  Diseases or functions annotation: Incidence of tumor: Inhibited
  Diseases or functions annotation: Large intestine neoplasm: Inhibited
  Diseases or functions annotation: Liver tumor: Inhibited
  Diseases or functions annotation: Malignant genitourinary solid tumor: Inhibited
  Diseases or functions annotation: Metabolism of hormone: Inhibited
  Diseases or functions annotation: Pelvic tumor: Inhibited
  Diseases or functions annotation: Quantity of Ca^2+: Inhibited
  Diseases or functions annotation: Quantity of carbohydrate: Activated
  Diseases or functions annotation: Quantity of metal: Activated
  Diseases or functions annotation: Synthesis of lipid: Activated
  Diseases or functions annotation: Tumorigenesis of epithelial neoplasm: Inhibited
  Diseases or functions annotation: Tumorigenesis of tissue: Inhibited
  Diseases or functions annotation: Vaso-occlusion: Activated
  Diseases or functions annotation: Weight gain: Activated
  Ingenuity canonical pathway: Adrenomedullin signaling pathway: Inhibited
  Ingenuity canonical pathway: ERK5 Signaling: Inhibited
  Ingenuity canonical pathway: Endothelin-1 Signaling: Activated
  Ingenuity canonical pathway: G Beta Gamma Signaling: Activated
  Ingenuity canonical pathway: NF-κB Signaling: Inhibited
  Ingenuity canonical pathway: Opioid Signaling Pathway: Inhibited
  Ingenuity canonical pathway: Role of NFAT in Regulation of the Immune Response: Activated
  Ingenuity canonical pathway: Synaptic Long Term Depression: Activated
[4]
  Effect on diseases or functions annotation: Abdominal cancer: Inhibited
  Effect on diseases or functions annotation: Abdominal carcinoma: Inhibited
  Effect on diseases or functions annotation: Abdominal neoplasm: Inhibited
  Effect on diseases or functions annotation: Apoptosis: Activated
  Effect on diseases or functions annotation: Behavior: Inhibited
  Effect on diseases or functions annotation: Carcinoma: Inhibited
  Effect on diseases or functions annotation: Cell death: Activated
  Effect on diseases or functions annotation: Cell death of antigen presenting cells: Inhibited
  Effect on diseases or functions annotation: Cell death of immune cells: Inhibited
  Effect on diseases or functions annotation: Cell death of tumor cell lines: Inhibited
  Effect on diseases or functions annotation: Cell movement: Inhibited
  Effect on diseases or functions annotation: Cell movement of tumor cell lines: Inhibited
  Effect on diseases or functions annotation: Cell proliferation of leukocyte cell lines: Inhibited
  Effect on diseases or functions annotation: Cellular homeostasis: Inhibited
  Effect on diseases or functions annotation: Chemotaxis: Inhibited
  Effect on diseases or functions annotation: Concentration of prostaglandin: Inhibited
  Effect on diseases or functions annotation: Development of vasculature: Inhibited
  Effect on diseases or functions annotation: Digestive organ tumor: Inhibited
  Effect on diseases or functions annotation: Digestive system cancer: Inhibited
  Effect on diseases or functions annotation: Edema: Activated
  Effect on diseases or functions annotation: Epithelial neoplasm: Inhibited
  Effect on diseases or functions annotation: Extracranial solid tumor: Inhibited
  Effect on diseases or functions annotation: Feeding: Inhibited
  Effect on diseases or functions annotation: Growth of tumor: Inhibited
  Effect on diseases or functions annotation: Hematologic cancer: Inhibited
  Effect on diseases or functions annotation: Incidence of tumor: Inhibited
  Effect on diseases or functions annotation: Leukocyte migration: Inhibited
  Effect on diseases or functions annotation: Leukopoiesis: Inhibited
  Effect on diseases or functions annotation: Locomotion: Inhibited
  Effect on diseases or functions annotation: Lymphocyte homeostasis: Inhibited
  Effect on diseases or functions annotation: Lymphocytic cancer: Inhibited
  Effect on diseases or functions annotation: Lymphocytic neoplasm: Inhibited
  Effect on diseases or functions annotation: Lymphopoiesis: Inhibited
  Effect on diseases or functions annotation: Lymphoproliferative disorder: Inhibited
  Effect on diseases or functions annotation: Malignant solid tumor: Inhibited
  Effect on diseases or functions annotation: Metabolism of hormone: Inhibited
  Effect on diseases or functions annotation: Migration of cells: Inhibited
  Effect on diseases or functions annotation: Necrosis: Inhibited
  Effect on diseases or functions annotation: Neoplasia of leukocytes: Inhibited
  Effect on diseases or functions annotation: Non-melanoma solid tumor: Inhibited
  Effect on diseases or functions annotation: Proliferation of hematopoietic progenitor cells: Inhibited
  Effect on diseases or functions annotation: Quantity of cells: Inhibited
  Effect on diseases or functions annotation: Quantity of epithelial tissue: Inhibited
  Effect on diseases or functions annotation: Quantity of neuroglia: Inhibited
